Read-outs that look alike come from different tables or passages of the source.
Tests used:
EGFR Del19/T790M/C797S = EGFR Del19/T790M/C797S (Homo sapiens, UniProt P00533, C797S/DEL746-750/T790M); test: Biochemical EGFR kinase inhibition assay (Lance Ultra TR-FRET), triple mutant del19/T790M/C797S
Summary of the method: (§1)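 Kinase activity is measured by TR-FRET phosphopeptide detection. Compounds span 0.003 μM to 10 μM; the 1 h reaction at room temperature is quenched with EDTA, then labelled antibody (2 nM) is incubated 60 min before reading.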

EGFR L858R/T790M/C797S = EGFR L858R/T790M/C797S (Homo sapiens, UniProt P00533, C797S/L858R/T790M); test: Biochemical EGFR kinase inhibition assay (Lance Ultra TR-FRET), triple mutant L858R/T790M/C797S
Summary of the method: as §1

EGFR Del19/C797S = EGFR Del19/C797S (Homo sapiens, UniProt P00533, C797S/DEL746-750); test: Biochemical EGFR kinase inhibition assay (Lance Ultra TR-FRET), double mutant del19/C797S
Summary of the method: as §1

EGFR L858R/C797S = EGFR L858R/C797S (Homo sapiens, UniProt P00533, C797S/L858R); test: Biochemical EGFR kinase inhibition assay (Lance Ultra TR-FRET), double mutant L858R/C797S
Summary of the method: as §1

EGFR wildtype (WT) = EGFR wildtype (WT) (Homo sapiens, UniProt P00533); test: Biochemical EGFR kinase inhibition assay (Lance Ultra TR-FRET), wildtype
Summary of the method: as §1

[1] = IC50 Del19/T790M/C797S (nM), 100 μM ATP
[2] = IC50 L858R/T790M/C797S (nM), 100 μM ATP
[3] = IC50 Del19/C797S (nM), 100 μM ATP
[4] = Km ATP, read-out: IC50 Del19/C797S (nM), Km ATP
[5] = IC50 L858R/C797S (nM), 100 μM ATP
[6] = Km ATP, read-out: IC50 L858R/C797S (nM), Km ATP
[7] = Km ATP, read-out: IC50 WT (nM), Km ATP
[8] = Km ATP, read-out: IC50 Del19/T790M/C797S (nM), Km ATP
[9] = Km ATP, read-out: IC50 L858R/T790M/C797S (nM), Km ATP

Chain of EGFR wildtype (WT) (P00533 25-1210): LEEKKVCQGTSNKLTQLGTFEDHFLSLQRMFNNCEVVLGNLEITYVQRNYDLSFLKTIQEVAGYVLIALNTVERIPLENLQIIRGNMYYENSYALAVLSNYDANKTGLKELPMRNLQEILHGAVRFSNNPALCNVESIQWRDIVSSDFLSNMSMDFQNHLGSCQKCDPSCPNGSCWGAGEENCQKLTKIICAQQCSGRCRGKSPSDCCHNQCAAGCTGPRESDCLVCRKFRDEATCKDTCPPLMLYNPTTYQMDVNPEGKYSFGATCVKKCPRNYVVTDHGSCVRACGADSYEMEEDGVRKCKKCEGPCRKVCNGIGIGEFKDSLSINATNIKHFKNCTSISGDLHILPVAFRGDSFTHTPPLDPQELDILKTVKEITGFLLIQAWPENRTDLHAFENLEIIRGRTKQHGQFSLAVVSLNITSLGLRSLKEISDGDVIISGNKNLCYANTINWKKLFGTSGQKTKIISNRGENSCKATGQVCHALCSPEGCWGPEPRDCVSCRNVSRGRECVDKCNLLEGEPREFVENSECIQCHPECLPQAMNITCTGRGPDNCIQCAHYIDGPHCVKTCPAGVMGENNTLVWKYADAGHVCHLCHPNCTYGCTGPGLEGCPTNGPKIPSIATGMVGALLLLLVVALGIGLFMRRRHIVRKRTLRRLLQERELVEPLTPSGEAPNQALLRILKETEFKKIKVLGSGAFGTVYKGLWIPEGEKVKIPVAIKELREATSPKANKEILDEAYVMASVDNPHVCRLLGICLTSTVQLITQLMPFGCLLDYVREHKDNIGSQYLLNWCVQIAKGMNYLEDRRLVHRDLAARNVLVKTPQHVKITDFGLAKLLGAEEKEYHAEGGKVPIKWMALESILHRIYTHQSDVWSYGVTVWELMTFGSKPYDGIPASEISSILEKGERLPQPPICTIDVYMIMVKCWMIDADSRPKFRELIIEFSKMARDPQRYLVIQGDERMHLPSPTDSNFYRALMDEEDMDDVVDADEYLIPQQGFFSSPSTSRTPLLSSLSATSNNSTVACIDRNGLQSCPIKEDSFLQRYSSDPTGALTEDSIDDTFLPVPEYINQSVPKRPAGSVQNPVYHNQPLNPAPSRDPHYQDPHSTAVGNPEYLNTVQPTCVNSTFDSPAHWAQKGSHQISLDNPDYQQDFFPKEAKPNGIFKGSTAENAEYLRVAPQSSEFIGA
Chain of EGFR Del19/T790M/C797S (P00533 with tags, fused parts or gaps DEL746-750/T790M/C797S): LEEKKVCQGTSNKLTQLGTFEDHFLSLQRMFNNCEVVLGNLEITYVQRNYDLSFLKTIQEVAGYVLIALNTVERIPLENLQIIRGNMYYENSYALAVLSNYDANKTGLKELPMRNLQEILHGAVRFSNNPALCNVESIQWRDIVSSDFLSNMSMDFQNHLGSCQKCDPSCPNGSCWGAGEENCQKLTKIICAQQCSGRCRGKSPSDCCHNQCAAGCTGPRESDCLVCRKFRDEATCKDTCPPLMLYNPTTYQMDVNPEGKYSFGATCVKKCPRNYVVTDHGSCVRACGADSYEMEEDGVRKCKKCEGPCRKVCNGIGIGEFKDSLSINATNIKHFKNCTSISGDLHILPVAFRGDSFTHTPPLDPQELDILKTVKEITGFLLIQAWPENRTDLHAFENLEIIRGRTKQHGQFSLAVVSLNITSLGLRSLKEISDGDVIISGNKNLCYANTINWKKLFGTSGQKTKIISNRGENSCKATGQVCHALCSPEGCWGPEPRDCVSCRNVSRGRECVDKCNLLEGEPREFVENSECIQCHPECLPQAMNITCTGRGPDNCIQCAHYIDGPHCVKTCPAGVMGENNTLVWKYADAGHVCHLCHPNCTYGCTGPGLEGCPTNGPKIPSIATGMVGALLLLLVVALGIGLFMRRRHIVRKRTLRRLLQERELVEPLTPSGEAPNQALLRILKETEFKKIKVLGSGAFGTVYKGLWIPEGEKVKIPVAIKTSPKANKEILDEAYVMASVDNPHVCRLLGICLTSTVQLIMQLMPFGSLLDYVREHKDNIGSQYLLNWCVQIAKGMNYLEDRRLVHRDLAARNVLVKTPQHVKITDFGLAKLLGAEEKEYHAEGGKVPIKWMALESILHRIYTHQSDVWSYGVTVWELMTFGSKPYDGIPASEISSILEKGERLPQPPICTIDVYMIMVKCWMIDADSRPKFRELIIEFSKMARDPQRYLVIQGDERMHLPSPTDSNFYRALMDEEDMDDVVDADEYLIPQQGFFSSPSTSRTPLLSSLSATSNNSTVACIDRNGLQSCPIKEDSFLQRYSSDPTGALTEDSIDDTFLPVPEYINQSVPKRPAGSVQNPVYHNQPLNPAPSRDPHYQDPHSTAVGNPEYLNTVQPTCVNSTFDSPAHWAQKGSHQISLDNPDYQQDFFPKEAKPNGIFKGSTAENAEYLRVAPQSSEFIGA
Chain of EGFR L858R/C797S (P00533 25-1210 C797S/L858R): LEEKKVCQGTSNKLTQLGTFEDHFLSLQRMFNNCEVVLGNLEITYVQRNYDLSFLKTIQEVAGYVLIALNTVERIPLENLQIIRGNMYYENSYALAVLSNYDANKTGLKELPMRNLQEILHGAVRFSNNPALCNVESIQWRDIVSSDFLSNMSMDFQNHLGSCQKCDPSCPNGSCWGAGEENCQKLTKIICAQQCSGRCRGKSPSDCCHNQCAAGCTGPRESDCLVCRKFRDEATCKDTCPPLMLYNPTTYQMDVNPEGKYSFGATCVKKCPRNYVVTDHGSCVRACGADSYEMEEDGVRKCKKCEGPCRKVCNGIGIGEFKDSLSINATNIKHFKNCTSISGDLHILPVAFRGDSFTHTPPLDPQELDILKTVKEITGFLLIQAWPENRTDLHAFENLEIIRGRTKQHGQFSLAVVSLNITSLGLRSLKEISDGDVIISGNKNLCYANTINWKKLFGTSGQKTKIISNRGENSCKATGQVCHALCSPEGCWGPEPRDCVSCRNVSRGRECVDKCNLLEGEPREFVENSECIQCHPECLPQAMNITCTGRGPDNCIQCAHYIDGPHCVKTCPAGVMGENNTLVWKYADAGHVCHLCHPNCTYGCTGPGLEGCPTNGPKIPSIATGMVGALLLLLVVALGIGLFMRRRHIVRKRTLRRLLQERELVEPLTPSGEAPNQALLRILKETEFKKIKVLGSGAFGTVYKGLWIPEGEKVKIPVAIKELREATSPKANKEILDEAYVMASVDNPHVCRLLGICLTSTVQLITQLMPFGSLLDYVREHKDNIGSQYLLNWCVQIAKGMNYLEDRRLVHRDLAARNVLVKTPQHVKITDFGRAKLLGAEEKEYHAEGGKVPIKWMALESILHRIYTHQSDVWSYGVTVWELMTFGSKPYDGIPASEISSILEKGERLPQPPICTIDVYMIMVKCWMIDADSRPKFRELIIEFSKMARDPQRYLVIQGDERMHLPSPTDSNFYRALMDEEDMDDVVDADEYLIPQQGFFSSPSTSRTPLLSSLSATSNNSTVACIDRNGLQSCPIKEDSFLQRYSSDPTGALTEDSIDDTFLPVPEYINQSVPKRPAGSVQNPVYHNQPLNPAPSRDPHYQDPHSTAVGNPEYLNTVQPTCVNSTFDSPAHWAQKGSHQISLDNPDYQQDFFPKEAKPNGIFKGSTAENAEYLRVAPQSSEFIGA
Chain of EGFR Del19/C797S (P00533 with tags, fused parts or gaps DEL746-750/C797S): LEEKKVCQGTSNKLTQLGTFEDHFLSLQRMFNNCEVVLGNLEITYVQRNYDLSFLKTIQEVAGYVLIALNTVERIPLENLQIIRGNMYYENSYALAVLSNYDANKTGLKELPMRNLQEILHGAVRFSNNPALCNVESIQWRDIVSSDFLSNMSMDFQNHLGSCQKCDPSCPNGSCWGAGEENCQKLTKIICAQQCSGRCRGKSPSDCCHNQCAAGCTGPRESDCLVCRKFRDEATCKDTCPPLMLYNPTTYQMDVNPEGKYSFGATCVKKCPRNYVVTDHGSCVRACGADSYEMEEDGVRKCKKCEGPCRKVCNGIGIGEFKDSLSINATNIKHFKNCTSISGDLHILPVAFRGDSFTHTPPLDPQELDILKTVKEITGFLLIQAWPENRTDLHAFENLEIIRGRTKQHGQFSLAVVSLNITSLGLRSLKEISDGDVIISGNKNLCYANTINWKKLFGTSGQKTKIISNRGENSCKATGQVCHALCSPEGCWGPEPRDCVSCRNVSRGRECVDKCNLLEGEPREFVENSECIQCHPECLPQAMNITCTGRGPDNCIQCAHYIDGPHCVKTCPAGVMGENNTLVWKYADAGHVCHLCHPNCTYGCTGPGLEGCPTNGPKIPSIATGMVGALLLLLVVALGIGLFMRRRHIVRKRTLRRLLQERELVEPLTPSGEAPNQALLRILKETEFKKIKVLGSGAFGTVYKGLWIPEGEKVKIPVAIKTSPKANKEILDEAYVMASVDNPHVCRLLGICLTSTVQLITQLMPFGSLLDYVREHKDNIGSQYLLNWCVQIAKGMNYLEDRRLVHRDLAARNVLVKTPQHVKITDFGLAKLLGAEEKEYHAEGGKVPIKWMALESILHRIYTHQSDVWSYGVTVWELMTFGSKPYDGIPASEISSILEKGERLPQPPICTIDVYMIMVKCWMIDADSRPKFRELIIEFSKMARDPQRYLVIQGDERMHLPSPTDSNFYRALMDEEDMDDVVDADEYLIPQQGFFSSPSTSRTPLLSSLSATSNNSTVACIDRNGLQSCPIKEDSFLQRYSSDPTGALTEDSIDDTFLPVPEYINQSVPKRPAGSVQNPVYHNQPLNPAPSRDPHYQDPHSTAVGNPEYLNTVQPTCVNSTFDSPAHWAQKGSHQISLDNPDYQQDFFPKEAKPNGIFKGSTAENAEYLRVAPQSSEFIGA

Row | SMILES | IC50 (EGFR Del19/T790M/C797S; [1]) | IC50 (EGFR L858R/T790M/C797S; [2]) | IC50 (EGFR Del19/C797S; [3]) | IC50 (EGFR Del19/C797S; [4]) | IC50 (EGFR L858R/C797S; [5]) | IC50 (EGFR L858R/C797S; [6]) | IC50 (EGFR wildtype (WT); IC50 WT (nM), 100 μM ATP) | IC50 (EGFR wildtype (WT); [7]) | IC50 (EGFR Del19/T790M/C797S; [8]) | IC50 (EGFR L858R/T790M/C797S; [9])
1 | CC1(O)CCN(c2cc(Nc3ccnc(-c4cnn(S(=O)(=O)C5CC5)c4)n3)ncc2C#CC2(C)CC2)CC1 [Example 404, 1-(2-((2-(1-(Cyclopropylsulfonyl)-1H-pyrazol-4-yl)pyrimidin-4-yl)amino)-5-((1-methylcyclopropyl)ethynyl)pyridin-4-yl)-4-methylpiperidin-4-ol] | 1.7 nM | 2.9 nM | 3.6 nM | 5.3 nM | 55.6 nM | 2.7 nM | 9350 nM | 45.8 nM | – | –
2 | CC1(C#Cc2cnc(Nc3ccnc(-c4cnn(S(=O)(=O)C5CC5)c4)n3)cc2NC[C@H]2CC[C@H](CO)CC2)CC1 [Example 405, ((1r,4r)-4-(((2-((2-(1-(Cyclopropylsulfonyl)-1H-pyrazol-4-yl)pyrimidin-4-yl)amino)-5-((1-methylcyclopropyl)ethynyl)pyridin-4-yl)amino)methyl)cyclohexyl)methanol] | 46.5 nM | 94.2 nM | 249 nM | – | 3900 nM | – | > 10000 nM | – | – | –
3 | CN(C)CC1(C)CCN(c2cc(Nc3ccnc(-c4cnn(S(=O)(=O)C5CC5)c4)n3)ncc2C#CC2(C)CC2)CC1 [Example 406, 2-(1-(Cyclopropylsulfonyl)-1H-pyrazol-4-yl)-N-(4-(4-((dimethylamino)methyl)-4-methylpiperidin-1-yl)-5-((1-methylcyclopropyl)ethynyl)pyridin-2-yl)pyrimidin-4-amine] | 0.9 nM | 1.3 nM | 4.3 nM | 3.3 nM | 58.2 nM | 2.7 nM | > 10000 nM | 35.2 nM | – | –
4 | CN(C)CCC1CCN(c2cc(Nc3ccnc(-c4cnn(S(=O)(=O)C5CC5)c4)n3)ncc2C#CC2(C)CC2)CC1 [Example 407, 2-(1-(Cyclopropylsulfonyl)-1H-pyrazol-4-yl)-N-(4-(4-(2-(dimethylamino)ethyl)piperidin-1-yl)-5-((1-methylcyclopropyl)ethynyl)pyridin-2-yl)pyrimidin-4-amine] | 0.3 nM | 0.4 nM | 0.7 nM | 0.6 nM | 13 nM | 0.8 nM | 1260 nM | 4.4 nM | – | –
5 | O=C(N1CCC(C#Cc2cnc(Nc3ccnc(-c4cnn(S(=O)(=O)C5CC5)c4)n3)cc2NC2CCC(CO)CC2)C1)C(F)(F)F (stereo not shown) [Example 408, 1-(3-((6-((2-(1-(Cyclopropylsulfonyl)-1H-pyrazol-4-yl)pyrimidin-4-yl)amino)-4-(((1s,4s)-4-(hydroxymethyl)cyclohexyl)amino)pyridin-3-yl)ethynyl)pyrrolidin-1-yl)-2,2,2-trifluoroethan-1-one] | 0.1 nM | 0.2 nM | 2.1 nM | – | 26 nM | – | 6570 nM | – | – | –
6 | O=C(N1CCC(C#Cc2cnc(Nc3ccnc(-c4cnn(S(=O)(=O)C5CC5)c4)n3)cc2NCC2CCC(O)CC2)C1)C(F)(F)F (stereo not shown) [Example 409, 1-(3-((6-((2-(1-(Cyclopropylsulfonyl)-1H-pyrazol-4-yl)pyrimidin-4-yl)amino)-4-((((1 r,4r)-4-hydroxycyclohexyl)methyl)amino)pyridin-3-yl)ethynyl)pyrrolidin-1-yl)-2,2,2-trifluoroethan-1-one] | 4.3 nM | 10.5 nM | 81.3 nM | – | 648 nM | – | > 10000 nM | – | – | –
7 | CC1(O)CCN(c2cc(Nc3ccnc(-c4cnn(S(=O)(=O)C5CC5)c4)n3)ncc2C#CC2CCN(C(=O)C(F)(F)F)C2)CC1 (stereo not shown) [Example 410, 1-(3-((6-((2-(1-(Cyclopropylsulfonyl)-1H-pyrazol-4-yl)pyrimidin-4-yl)amino)-4-(4-hydroxy-4-methylpiperidin-1-yl)pyridin-3-yl)ethynyl)pyrrolidin-1-yl)-2,2,2-trifluoroethan-1-one] | 0.2 nM | 0.6 nM | 3.1 nM | – | 29.4 nM | – | 7420 nM | – | – | –
8 | O=C(N1CCC(C#Cc2cnc(Nc3ccnc(-c4cnn(S(=O)(=O)C5CC5)c4)n3)cc2NCC2CCC(CO)CC2)C1)C(F)(F)F (stereo not shown) [Example 411, 1-(3-((6-((2-(1-(Cyclopropylsulfonyl)-1H-pyrazol-4-yl)pyrimidin-4-yl)amino)-4-((((1 r,4r)-4-(hydroxymethyl)cyclohexyl)methyl)amino)pyridin-3-yl)ethynyl)pyrrolidin-1-yl)-2,2,2-trifluoroethan-1-one] | 7.3 nM | 35.9 nM | 59.8 nM | – | 979 nM | – | > 10000 nM | – | – | –
9 | CN(C)CC1(C)CCN(c2cc(Nc3ccnc(-c4cnn(S(=O)(=O)C5CC5)c4)n3)ncc2C#CC2CCN(C(=O)C(F)(F)F)C2)CC1 (stereo not shown) [Example 412, 1-(3-((6-((2-(1-(Cyclopropylsulfonyl)-1H-pyrazol-4-yl)pyrimidin-4-yl)amino)-4-(4-((dimethylamino)methyl)-4-methylpiperidin-1-yl)pyridin-3-yl)ethynyl)pyrrolidin-1-yl)-2,2,2-trifluoroethan-1-one] | 0.3 nM | 2.7 nM | 3.3 nM | – | 21.5 nM | – | > 10000 nM | – | – | –
10 | CN(C)CCC1CCN(c2cc(Nc3ccnc(-c4cnn(S(=O)(=O)C5CC5)c4)n3)ncc2C#CC2CCN(C(=O)C(F)(F)F)C2)CC1 (stereo not shown) [Example 413, 1-(3-((6-((2-(1-(Cyclopropylsulfonyl)-1H-pyrazol-4-yl)pyrimidin-4-yl)amino)-4-(4-(2-(dimethylamino)ethyl)piperidin-1-yl)pyridin-3-yl)ethynyl)pyrrolidin-1-yl)-2,2,2-trifluoroethan-1-one] | 0.1 nM | 1.4 nM | 0.8 nM | – | 10.3 nM | – | 2910 nM | – | – | –

Continued, values first:

Row | IC50 (EGFR Del19/T790M/C797S; [1]) | IC50 (EGFR L858R/T790M/C797S; [2]) | IC50 (EGFR Del19/C797S; [3]) | IC50 (EGFR Del19/C797S; [4]) | IC50 (EGFR L858R/C797S; [5]) | IC50 (EGFR L858R/C797S; [6]) | IC50 (EGFR wildtype (WT); IC50 WT (nM), 100 μM ATP) | IC50 (EGFR wildtype (WT); [7]) | IC50 (EGFR Del19/T790M/C797S; [8]) | IC50 (EGFR L858R/T790M/C797S; [9]) | SMILES
11 | 0.4 nM | 3.9 nM | 1.8 nM | – | 24.1 nM | – | 5190 nM | – | – | – | O=C(N1CCC(C#Cc2cnc(Nc3ccnc(-c4cnn(S(=O)(=O)C5CC5)c4)n3)cc2NC2CCC(O)CC2)C1)C(F)(F)F (stereo not shown) [Example 414, 1-(3-((6-((2-(1-(Cyclopropylsulfonyl)-1H-pyrazol-4-yl)pyrimidin-4-yl)amino)-4-(((1 s, 4s)-4-hydroxycyclohexyl)amino)pyridin-3-yl)ethynyl)pyrrolidin-1-yl)-2,2,2-trifluoroethan-1-one]
12 | 0.2 nM | 1.7 nM | 1.2 nM | – | 21.6 nM | – | 5060 nM | – | – | – | CC1(CO)CCN(c2cc(Nc3ccnc(-c4cnn(S(=O)(=O)C5CC5)c4)n3)ncc2C#CC2CCN(C(=O)C(F)(F)F)C2)CC1 (stereo not shown) [Example 415, 1-(3-((6-((2-(1-(Cyclopropylsulfonyl)-1H-pyrazol-4-yl)pyrimidin-4-yl)amino)-4-(4-(hydroxymethyl)-4-methylpiperidin-1-yl)pyridin-3-yl)ethynyl)pyrrolidin-1-yl)-2,2,2-trifluoroethan-1-one]
13 | 2.7 nM | 2.8 nM | 8.2 nM | 7.2 nM | 165 nM | 33.6 nM | > 10000 nM | 84.5 nM | 2.6 nM | 0.9 nM | O=S(=O)(C1CC1)n1cc(-c2nccc(Nc3cc(NC4CCC(CO)CC4)c(C#CC4CCOC4C(F)(F)F)cn3)n2)cn1 [Example 416, ((1s,4s)-4-((2-((2-(1-(Cyclopropylsulfonyl)-1H-pyrazol-4-yl)pyrimidin-4-yl)amino)-5-(((2R)-2-(trifluoromethyl)tetrahydrofuran-3-yl)ethynyl)pyridin-4-yl)amino)cyclohexyl)methanol]
14 | 1.6 nM | 2.6 nM | 7.9 nM | 7 nM | 157 nM | 30.7 nM | > 10000 nM | 96.1 nM | 1.5 nM | 0.8 nM | CC1(O)CCN(c2cc(Nc3ccnc(-c4cnn(S(=O)(=O)C5CC5)c4)n3)ncc2C#CC2CCO[C@H]2C(F)(F)F)CC1 (stereo partly drawn) [Example 417, 1-(2-((2-(1-(Cyclopropylsulfonyl)-1H-pyrazol-4-yl)pyrimidin-4-yl)amino)-5-(((2R)-2-(trifluoromethyl)tetrahydrofuran-3-yl)ethynyl)pyridin-4-yl)-4-methylpiperidin-4-ol]
15 | 1.1 nM | 2.3 nM | 10.1 nM | – | 235 nM | – | > 10000 nM | – | – | – | CN(C)CC1(C)CCN(c2cc(Nc3ccnc(-c4cnn(S(=O)(=O)C5CC5)c4)n3)ncc2C#CC2CCO[C@H]2C(F)(F)F)CC1 (stereo partly drawn) [Example 418, 2-(1-(Cyclopropylsulfonyl)-1H-pyrazol-4-yl)-N-(4-(4-((dimethylamino)methyl)-4-methylpiperidin-1-yl)-5-(((2R)-2-(trifluoromethyl)tetrahydrofuran-3-yl)ethynyl)pyridin-2-yl)pyrimidin-4-amine]

From patent US11981658B2, “Substituted aminopyridine compounds as EGFR inhibitors” (YUHAN CORPORATION, priority 2021, dated 2024)
